# Data as given in patent US20150216865A1, “METHODS OF TREATING A BRUTON'S TYROSINE KINASE DISEASE OR DISORDER” (Celgene Avilomics Research, Inc., priority 2012, published 2015).
# Entries after “also recorded” stand apart in the source; their conditions may differ. Where two headings read alike, the source gives them in different places. Marks after values point to notes of the source that are not given here.
# How the values were obtained:
# [1] = test system: male NOD mice; assay: NOD mouse model, salivary gland histopathology; format: in vivo; settings: 20 weeks of age
# Excerpt: Histopathology. Samples of lachrymal gland and salivary glands from all animals were fixed for Haematoxylin & Eosin histological analysis. Sections were inspected blind by a qualified histopathologist and scored for signs of pathology according to a semi-quantitative scoring system. This system is based on the mean number of inflammatory foci comprising 50 or more mononuclear inflammatory cells per objective field. The ratio of infiltrated to normal glandular tissue was expressed on a five point scale.
# (i) Focus Score. The mean number of inflammatory foci comprising ≧50 mononuclear inflammatory cells per ×10 objective field was counted. Five such fields were assessed (where possible) to derive this index and these are selected to contain the maximum number of such foci. Where the overall area of the tissue section was less than five fields, the number of ×10 objective fields was recorded and used to determine the focus score. (ii) Area Score. The ratio of infiltrated to normal glandular tissue was expressed on a five point scale: • 0: No infiltrates • 1: 0-25% of the tissue section infiltrated • 2: 26-50% of the tissue section infiltrated • 3: 51-75% of the tissue section infiltrated • 4: 76-100% of the tissue section infiltrated
# Salivary Gland Histopathology. […] Sections were examined and scored for two criteria: Focus Score and Area Score as outlined above.
# [2] = Clinical single dose study in healthy human volunteers, pharmacokinetics; format: in vivo; settings: single oral 2 mg/kg
# Method: Clinical Study: A double blind, placebo-controlled, ascending single dose, randomized study in normal healthy human volunteers was conducted at a single clinical research unit in accordance with Declaration of Helsinki principles. Informed consent statements were obtained from all subjects prior to inclusion in the study. Subjects were admitted to the unit 1 day before dosing and discharged 96 h after dosing.
# [3] = test system: male NOD mice; assay: NOD mouse model of Sjogren's syndrome, glycaemia / incidence of diabetes; format: in vivo
# Method: Non-Obese Diabetic Mouse (NOD) Model of Sjogren's Syndrome. Male Non Obese Diabetic (NOD) mice from the KWS BioTest NOD colony and male BALB/c mice were randomly allocated to experimental groups and allowed to acclimatise for one week prior to the beginning of the study. From six weeks of age, animals were treated according to the administration schedule in Table 5, below. Each group consisted of n=12 animals. The administration volume was 15 ml/kg from 6-12 weeks of age. The administration volume was then decreased to 10 ml/kg from 13-20 weeks of age. The vehicle was distilled water pH 3.0-3.5 for Group 7. […] Glycaemia. From fourteen weeks of age, animals were monitored weekly for signs of hyperglycaemia. A blood sample was taken from a superficial vein and the blood glucose level was measured using Free Style Optium glucose test strips (Abbott) and a Boots glucose reader. Glycaemia. Blood glucose was monitored once per week from 14 weeks of age. Animals with glycaemia equal to or greater than 11 mM on two consecutive weekly readings were considered diabetic.
# [4] = test system: TNF-a; assay: Inflammatory chemokine and cytokine analysis in CIA mice, TNF-a; format: in vivo, mouse
# Method: (§1) Inflammatory Chemokine and Cytokine Analysis: At the termination of the CIA study, mice were sacrificed and blood was harvested via cardiac punch using EDTA as an anticoagulant. Following centrifugation, serum was diluted 1:4 with a mouse serum diluents kit (BioRad cat#171-305004). Levels of various mouse cytokines in plasma were quantified using Bioplex® Suspension Array System according to manufacturer's instruction (BioRad, mTNFa (171-G5023M), mIL-6 (171-G5007M), mKC (171-G5018M), mIFNg (171-G5017M), mIL-17 (Z60-00006Z2), mIL-1β (171-G5002M), mMCP-1 (171-G5019M).
# [5] = test system: male NOD mice; assay: NOD mouse model, lachrymal gland secretion (cotton thread test); format: in vivo; settings: besylate
# Method: Non-Obese Diabetic Mouse (NOD) Model of Sjogren's Syndrome. Male Non Obese Diabetic (NOD) mice from the KWS BioTest NOD colony and male BALB/c mice were randomly allocated to experimental groups and allowed to acclimatise for one week prior to the beginning of the study. From six weeks of age, animals were treated according to the administration schedule in Table 5, below. Each group consisted of n=12 animals. The administration volume was 15 ml/kg from 6-12 weeks of age. The administration volume was then decreased to 10 ml/kg from 13-20 weeks of age. The vehicle was distilled water pH 3.0-3.5 for Group 7. The vehicle was 0.5% methylcellulose and 0.25% Tween® 80 for all other groups.
# Measurement of lachrymal gland secretion. Lachrymal gland secretion was measured every other week from six weeks of age using a cotton thread test. Briefly, animals were anaesthetised and a fluorescein-stained cotton thread was inserted under the eye lid in the medial canthus region and held in place for two minutes. Results for each group were graphed and presented with SEM's.
# Lachrymal Gland Secretion. Lachrymal gland secretion was measured by the cotton thread test. Data are expressed as millimetres per gram bodyweight. Data from this readout are indicative of inflammatory changes in the lachrymal gland, but significant changes are typically only seen from weeks 18 onwards in NOD mice. Data were analysed by two-way ANOVA for repeated measures followed by Dunnett's post-test for multiple comparisons to the vehicle-treated group and presented as mean±SEM (FIG. 14).
# [6] = Solubility; format: physicochemical
# [7] = test system: KC; assay: Inflammatory chemokine and cytokine analysis in CIA mice, KC; format: in vivo, mouse
# Excerpt: as §1, with “Following centrifugation, serum was diluted 1:4 with a mouse serum diluents kit (BioRad cat#171-305004).” left out
structure (smiles),measurement,setting,value
"C=CC(=O)Nc1cccc(Nc2nc(Nc3ccc(OCCOC)cc3)ncc2F)c1 [Compound 1 besylate, N-(3-(5-fluoro-2-(4-(2-methoxyethoxyl)phenylamino)pyrimidin-4-ylamino)phenyl)acrylamide besylate]",salivary gland Area Score (proportion of infiltrated glandular tissue) vs vehicle,[1],did not reduce
same,salivary gland Focus Score (number of inflammatory foci) vs vehicle,[1],did not reduce
same,Cmax,"[2]; plasma, 6 subjects, read-out: mean maximum plasma concentration (Cmax)",542 ng/mL
same,half-life,"[2]; plasma, read-out: median terminal elimination half-life (converted)",1.9 h
same,time to peak plasma concentrations,[2],30 to 120 min
same,plasma concentrations at 48 hours post dose,[2]; all subjects,below the lower limit of quantification
same,plasma concentrations within 24 hours post dose,[2]; limit of detection 0.1 ng/mL,near or below the lower limit of detection
same,Incidence of Diabetes,"[3]; 0.16 mg/kg ad libitum, age 18 weeks",8% (1/12)
same,Incidence of Diabetes,"[3]; 0.16 mg/kg ad libitum, age 19 weeks",17% (2/12)
same,Incidence of Diabetes,"[3]; 0.16 mg/kg ad libitum, age 20 weeks",17% (2/12)
same,Incidence of Diabetes,"[3]; 10 mg/kg SID, age 18 weeks",17% (2/12)
same,Incidence of Diabetes,"[3]; 10 mg/kg SID, age 19 weeks",17% (2/12)
same,Incidence of Diabetes,"[3]; 10 mg/kg SID, age 20 weeks",18% (2/11)
same,Incidence of Diabetes,"[3]; 30 mg/kg SID, age 18 weeks",0
same,Incidence of Diabetes,"[3]; 30 mg/kg SID, age 19 weeks",0
same,Incidence of Diabetes,"[3]; 30 mg/kg SID, age 20 weeks",0
same,Incidence of Diabetes,"[3]; 50 mg/kg BID, age 18 weeks",0
same,Incidence of Diabetes,"[3]; 50 mg/kg BID, age 19 weeks",0
same,Incidence of Diabetes,"[3]; 50 mg/kg BID, age 20 weeks",0
same,Incidence of Diabetes,"[3]; 100 mg/kg SID, age 18 weeks",0
same,Incidence of Diabetes,"[3]; 100 mg/kg SID, age 19 weeks",0
same,Incidence of Diabetes,"[3]; 100 mg/kg SID, age 20 weeks",0
same,TNF-a mean,[4]; 3 mg/kg,160.2 pg/mL
same,TNF-a mean,[4]; 10 mg/kg,123.0* pg/mL
same,TNF-a mean,[4]; 30 mg/lkg,117.0* pg/mL
same,lachrymal gland secretion vs vehicle,"[5]; 30 mg/kg SID, 10, 18 and 20 weeks of age",significantly higher; also recorded: statistically significant increase
same,lachrymal gland secretion vs vehicle,"[5]; 50 mg/kg twice daily, 6, 8, 10, 18 and 20 weeks of age",significantly higher; also recorded: statistically significant increase
same,lachrymal gland secretion vs vehicle,"[5]; 100 mg/kg SID, 8, 10, 12, 16, 18 and 20 weeks of age",significantly higher; also recorded: statistically significant increase
same,lachrymal gland secretion vs vehicle,"[5]; ad libitum 0.16 mg/ml in drinking water, 10, 16, 18 and 20 weeks of age",significantly higher; also recorded: statistically significant increase
same,solubility,"[6]; aqueous solution, aqueous buffer, approximately pH 3.0, read-out: maximum aqueous solubility",400 µg/mL
same,solubility,"[6]; ethanol, organic solvent or mixture, read-out: solubility in ethanol",~10000 µg/mL
same,solubility,"[6]; water, read-out: solubility in water",~160 µg/mL
same,KC mean,[7]; 3 mg/kg,62.0 pg/mL
same,KC mean,[7]; 10 mg/kg,31.1* pg/mL
same,KC mean,[7]; 30 mg/lkg,17.5* pg/mL
